In PMC11129975, “A first-in-human phase I study of TAS-117, an allosteric AKT inhibitor, in patients with advanced solid tumors” (Cancer Chemotherapy and Pharmacology, 2024):

Experiment: Phase I safety: adverse events, adverse drug reactions, DLTs in patients with advanced solid tumors
Assay type: in vivo, human
Conditions: for Adverse drug reactions: ALT increased / Adverse drug reactions: AST increased / Adverse drug reactions: Any events / Adverse drug reactions: Blood AP increased / Adverse drug reactions: Decreased appetite / Adverse drug reactions: Diarrhea / Adverse drug reactions: Dry skin / Adverse drug reactions: GGT increased / Adverse drug reactions: GI disorders / Adverse drug reactions: General disorders and administration site conditions / Adverse drug reactions: Hyperglycemia / Adverse drug reactions: Investigations / Adverse drug reactions: Metabolism and nutrition disorders / Adverse drug reactions: Nausea / Adverse drug reactions: Neutrophil count decreased / Adverse drug reactions: Pruritus / Adverse drug reactions: Pyrexia / Adverse drug reactions: Rash maculo-papular / Adverse drug reactions: Skin and SC tissue disorders / Adverse drug reactions: Stomatitis / Adverse drug reactions: Vomiting / Adverse drug reactions: WBC count decreased / Adverse events: ALT increased / Adverse events: AST increased / Adverse events: Any events / Adverse events: Blood AP increased / Adverse events: Decreased appetite / Adverse events: Diarrhea / Adverse events: Dry skin / Adverse events: GGT increased / Adverse events: GI disorders / Adverse events: General disorders and administration site conditions / Adverse events: Hyperglycemia / Adverse events: Investigations / Adverse events: Metabolism and nutrition disorders / Adverse events: Nausea / Adverse events: Neutrophil count decreased / Adverse events: Pruritus / Adverse events: Pyrexia / Adverse events: Rash maculo-papular / Adverse events: Skin and SC tissue disorders / Adverse events: Stomatitis / Adverse events: Vomiting / Adverse events: WBC count decreased: DEP n = 12
Description: This was a phase I, open-label, non-randomized, dose-escalating first-in-human study to evaluate the safety, pharmacokinetics, antitumor activity, pharmacodynamics, and pharmacogenomics of TAS-117 in patients with advanced solid tumors. The study had three phases: a dose escalation phase (DEP), a regimen modification phase (RMP), and a safety assessment phase (SAP). The treatment cycle on each regimen lasted 21 days. The DEP used an accelerated titration and 3 + 3 design. TAS-117 was administered orally once daily (QD) on an empty stomach (1 h before or 2 h after a meal). Dosing was determined based on a 4-week repeated oral-dose toxicology study in monkeys (data on file, Taiho Pharmaceutical Co., Ltd.); the highest non-severely toxic dose was 1.2 mg/kg/day, which was converted to 3.84 mg/body/day, or 2.4 mg/m^2. Therefore, the starting dose was determined to be ≤ 2.4 mg/m^2. At dose level 1, TAS-117 was administered at 2 mg QD (Day − 2), and the dose was increased to 4 mg QD after 2 days (Day 1). The RMP was conducted according to a 3 + 3 design. During this phase, the dose regimen was changed from QD administration to intermittent dosing of daily TAS-117 with 4 days on/3 days off. TAS-117 was administered on an empty stomach. Dose-limiting toxicities (DLTs) were evaluated in Cycle 1 of the DEP and RMP. […] The RD and regimen for the SAP were determined based on the safety, pharmacokinetics, pharmacodynamics, and antitumor activity profile determined in the DEP and RMP. During the SAP, the safety and preliminary efficacy profiles of TAS-117 were assessed at the RD and recommended regimen. Three cohorts were included in this assessment. Cohort 1 included patients with endometrial cancer with a PIK3CA mutation; cohort 2 included patients with endometrial cancer with an AKT1 mutation, AKT1 amplification, or AKT2 amplification; and cohort 3 included patients with ovarian clear cell carcinoma.
The primary endpoints were the proportion of patients who experienced DLTs in Cycle 1 of the DEP and RMP and the incidence of adverse events (AEs) and adverse drug reactions (ADRs) in the SAP. AEs and ADRs were coded using the Medical Dictionary for Regulatory Activities (MedDRA; version 24.1) and graded according to the National Cancer Institute Common Terminology Criteria for Adverse Events (CTCAE; version 4.03). Secondary endpoints were pharmacokinetic findings, changes in the ratio of phosphorylated PRAS40 (pPRAS40)/total PRAS40 from baseline, efficacy, and pharmacogenomics findings.

C[C@]1(O)C[C@@](N)(c2ccc(-c3nc4n(c3-c3ccccc3)COc3ccncc3-4)cc2)C1 [TAS-117]
Grade 2 maculopapular rash requiring study interruption (DEP dose level 4 (24 mg QD)): All patients
Adverse drug reactions: ALT increased (All grade): 1 (8.3) n (%)
Adverse drug reactions: AST increased (All grade): 1 (8.3) n (%)
Adverse drug reactions: Any events (All grade): 11 (91.7) n (%)
Adverse drug reactions: Blood AP increased (All grade): 1 (8.3) n (%)
Adverse drug reactions: Decreased appetite (All grade): 2 (16.7) n (%)
Adverse drug reactions: Diarrhea (All grade): 1 (8.3) n (%)
Adverse drug reactions: Dry skin (All grade): 0 (0.0) n (%)
Adverse drug reactions: GGT increased (All grade): 1 (8.3) n (%)
Adverse drug reactions: GI disorders (All grade): 4 (33.3) n (%)
Adverse drug reactions: General disorders and administration site conditions (All grade): 2 (16.7) n (%)
Adverse drug reactions: Hyperglycemia (All grade): 4 (33.3) n (%)
Adverse drug reactions: Investigations (All grade): 5 (41.7) n (%)
Adverse drug reactions: Metabolism and nutrition disorders (All grade): 5 (41.7) n (%)
Adverse drug reactions: Nausea (All grade): 1 (8.3) n (%)
Adverse drug reactions: Neutrophil count decreased (All grade): 3 (25.0) n (%)
Adverse drug reactions: Pruritus (All grade): 1 (8.3) n (%)
Adverse drug reactions: Pyrexia (All grade): 1 (8.3) n (%)
Adverse drug reactions: Rash maculo-papular (All grade): 9 (75.0) n (%)
Adverse drug reactions: Skin and SC tissue disorders (All grade): 11 (91.7) n (%)
Adverse drug reactions: Stomatitis (All grade): 3 (25.0) n (%)
Adverse drug reactions: Vomiting (All grade): 2 (16.7) n (%)
Adverse drug reactions: WBC count decreased (All grade): 3 (25.0) n (%)
Adverse events: ALT increased (All grade): 3 (25.0) n (%)
Adverse events: AST increased (All grade): 3 (25.0) n (%)
Adverse events: Any events (All grade): 11 (91.7) n (%)
Adverse events: Blood AP increased (All grade): 2 (16.7) n (%)
Adverse events: Decreased appetite (All grade): 5 (41.7) n (%)
Adverse events: Diarrhea (All grade): 3 (25.0) n (%)
Adverse events: Dry skin (All grade): 0 (0.0) n (%)
Adverse events: GGT increased (All grade): 2 (16.7) n (%)
Adverse events: GI disorders (All grade): 7 (58.3) n (%)
Adverse events: General disorders and administration site conditions (All grade): 5 (41.7) n (%)
Adverse events: Hyperglycemia (All grade): 4 (33.3) n (%)
Adverse events: Investigations (All grade): 6 (50.0) n (%)
Adverse events: Metabolism and nutrition disorders (All grade): 9 (75.0) n (%)
Adverse events: Nausea (All grade): 2 (16.7) n (%)
Adverse events: Neutrophil count decreased (All grade): 3 (25.0) n (%)
Adverse events: Pruritus (All grade): 1 (8.3) n (%)
Adverse events: Pyrexia (All grade): 1 (8.3) n (%)
Adverse events: Rash maculo-papular (All grade): 9 (75.0) n (%)
Adverse events: Skin and SC tissue disorders (All grade): 11 (91.7) n (%)
Adverse events: Stomatitis (All grade): 3 (25.0) n (%)
Adverse events: Vomiting (All grade): 3 (25.0) n (%)
Adverse events: WBC count decreased (All grade): 3 (25.0) n (%)
Adverse drug reactions: ALT increased (≥ Grade 3): 0 (0.0) n (%)
Adverse drug reactions: AST increased (≥ Grade 3): 0 (0.0) n (%)
Adverse drug reactions: Any events (≥ Grade 3): 3 (25.0) n (%)
Adverse drug reactions: Blood AP increased (≥ Grade 3): 0 (0.0) n (%)
Adverse drug reactions: Decreased appetite (≥ Grade 3): 0 (0.0) n (%)
Adverse drug reactions: Diarrhea (≥ Grade 3): 0 (0.0) n (%)
Adverse drug reactions: Dry skin (≥ Grade 3): 0 (0.0) n (%)
Adverse drug reactions: GGT increased (≥ Grade 3): 0 (0.0) n (%)
Adverse drug reactions: GI disorders (≥ Grade 3): 0 (0.0) n (%)
Adverse drug reactions: General disorders and administration site conditions (≥ Grade 3): 0 (0.0) n (%)
Adverse drug reactions: Hyperglycemia (≥ Grade 3): 2 (16.7) n (%)
Adverse drug reactions: Investigations (≥ Grade 3): 1 (8.3) n (%)
Adverse drug reactions: Metabolism and nutrition disorders (≥ Grade 3): 2 (16.7) n (%)
Adverse drug reactions: Nausea (≥ Grade 3): 0 (0.0) n (%)
Adverse drug reactions: Neutrophil count decreased (≥ Grade 3): 0 (0.0) n (%)
Adverse drug reactions: Pruritus (≥ Grade 3): 0 (0.0) n (%)
Adverse drug reactions: Pyrexia (≥ Grade 3): 0 (0.0) n (%)
Adverse drug reactions: Rash maculo-papular (≥ Grade 3): 0 (0.0) n (%)
Adverse drug reactions: Skin and SC tissue disorders (≥ Grade 3): 0 (0.0) n (%)
Adverse drug reactions: Stomatitis (≥ Grade 3): 0 (0.0) n (%)
Adverse drug reactions: Vomiting (≥ Grade 3): 0 (0.0) n (%)
Adverse drug reactions: WBC count decreased (≥ Grade 3): 1 (8.3) n (%)
Adverse events: ALT increased (≥ Grade 3): 0 (0.0) n (%)
Adverse events: AST increased (≥ Grade 3): 1 (8.3) n (%)
Adverse events: Any events (≥ Grade 3): 3 (25.0) n (%)
Adverse events: Blood AP increased (≥ Grade 3): 1 (8.3) n (%)
Adverse events: Decreased appetite (≥ Grade 3): 0 (0.0) n (%)
Adverse events: Diarrhea (≥ Grade 3): 0 (0.0) n (%)
Adverse events: Dry skin (≥ Grade 3): 0 (0.0) n (%)
Adverse events: GGT increased (≥ Grade 3): 1 (8.3) n (%)
Adverse events: GI disorders (≥ Grade 3): 0 (0.0) n (%)
Adverse events: General disorders and administration site conditions (≥ Grade 3): 0 (0.0) n (%)
Adverse events: Hyperglycemia (≥ Grade 3): 2 (16.7) n (%)
Adverse events: Investigations (≥ Grade 3): 3 (25.0) n (%)
Adverse events: Metabolism and nutrition disorders (≥ Grade 3): 2 (16.7) n (%)
Adverse events: Nausea (≥ Grade 3): 0 (0.0) n (%)
Adverse events: Neutrophil count decreased (≥ Grade 3): 0 (0.0) n (%)
Adverse events: Pruritus (≥ Grade 3): 0 (0.0) n (%)
Adverse events: Pyrexia (≥ Grade 3): 0 (0.0) n (%)
Adverse events: Rash maculo-papular (≥ Grade 3): 0 (0.0) n (%)
Adverse events: Skin and SC tissue disorders (≥ Grade 3): 0 (0.0) n (%)
Adverse events: Stomatitis (≥ Grade 3): 0 (0.0) n (%)
Adverse events: Vomiting (≥ Grade 3): 0 (0.0) n (%)
Adverse events: WBC count decreased (≥ Grade 3): 1 (8.3) n (%)
Recommended dose (RD) (QD dosing, patients with advanced or metastatic solid tumors): 16 mg
DLTs (RMP dose level 4 (24 mg), intermittent administration): No DLTs
